Reference: patent US8513214B2, “C4′-substituted-2-deoxyadenosine analogs and methods of treating HIV” (The United States of America as Represented by the …, priority 2007, dated 2013)
Where two headings read alike, the source gives them in different places.

What was measured:
HIV-1 SSGR+215 = format: cell-based
[1] = test system: HIV-1 viral DNA synthesis (reverse transcriptase); assay: Quantitative PCR of viral DNA from infected HOS cells; format: cell-based; settings: viral DNA collected 2, 4, 6 and 24 hours post-infection
Excerpt: FIG. 5 is a schematic illustrating the steps of HIV-1 viral DNA synthesis. Viral DNA was isolated from infections over time and assayed by quantitative PCR to determine the amount of viral DNA produced corresponding to various points of DNA synthesis. The regions targeted by our PCR primers and probes are indicated and correspond to: initiation (RU5), minus strand transfer (U3), full length viral DNA (gag), and plus strand transfer (corresponding to second strand synthesis).
The effects of the target compounds on viral DNA production were determined by quantitative PCR. 293 cells were transfected as above and transfections were washed with PBS 8 hours post-transfection and fresh medium added. The transfection wash step was repeated 24 hours post-transfection and fresh medium was added. On the day prior to infection, HOS cells were plated at 2×10^5 cells on to 60 mm plates. Virus-containing supernatants were harvested at 48 hours as above and treated with 20 U/mL of RNase-free DNase I (Roche Applied Science, Indianapolis, Ind.) and 30 U/mL of DNase Turbo (Ambion, Foster City, Calif.). Cells were pre-incubated with the target compounds for 3 h. For each target compound, the treated virus-containing supernatants were concentrated to 7.5 mL, and infections carried out by adding 1.75 mL each to 4 plates of HOS cells. Cells were harvested at 2, 4, 6, and 24 hour intervals and the viral DNA purified using the Qiagen EZ1 DNA tissue kit (Valencia, Calif.). Quantitative PCR (qPCR) was used to determine quantities of DNA corresponding to various steps along the viral DNA synthesis pathway. qPCR primers and probes used were as previously described. (Julias, J. G., Ferris, A. L., Boyer, P. L. and Hughes, S. H. (2001) J. Virol. 75, 6537-46.).
In order to determine that the compounds are targeting HIV-1 reverse transcriptase in the cell based assays, viral DNA was isolated from infections over time and assayed by quantitative PCR to determine the amount of viral DNA produced corresponding to various points of DNA synthesis (FIG. 5). The regions targeted by our PCR primers and probes correspond to: initiation (RU5), minus strand transfer (U3), full length viral DNA (gag), and plus strand transfer (corresponding to the initiation of second strand synthesis).

HIV-1 = format: cell-based
MT4 cells = settings: work from Ohuri and others; cited from earlier work
HIV-1 AZT-R = format: cell-based
[2] = test system: HIV-1 vectors (wild-type); format: cell-based
HIV-1 Q151M complex = format: cell-based
HIV-1 RT = biological target: T1, HIV-1 RT (Human immunodeficiency virus type 1 group M subtype B, UniProt P03366); assay: Polymerase (DNA) extension assay with purified recombinant HIV-1 RT; format: biochemical
T1 construct: The expression and purification of HIV-1 RT and the polymerase assays were done as previously described; made in house
Procedure: FIG. 15. In vitro DNA extension using purified, recombinant HIV-1 RT, with varying amounts of C4′-methyl-2-deoxyadenosinetriphosphate and either (A) a DNA template or (B) and RNA template. […] Bands in the lane containing equimolar amounts of ddATP and dATP correspond to pausing events at the site of incorporation of the nuclosidetriphosphate analog.
The expression and purification of HIV-1 RT and the polymerase assays were done as previously described. For the extension assays, 7.0µl of a […] of synthetic DNA oligonucleotide (5′-[…]-3′ (SEQ ID NO:1); Biosource, CA) was 5′ end-labeled, then annealed to an excess of either a DNA template (5′-[…]-3′ (SEQ ID NO:2)) or an RNA template (5′-[…]-3′ (SEQ ID NO:3)). The A residue is the first nucleotide past the 3′ end of the primer. The annealed template-primer (T/P) was suspended in a final concentration of 25.0 mM Tris (pH 8.0), 75 mM KCl, 8.0 mM MgCl2, 100.0µg/ml BSA, 10.0 mM CHAPS, and 10.0µM each of dCTP, dGTP, and TTP. For the RNA template reactions, the mixture was also supplemented with 1 U/µl of SuperAsin (Ambion). The reaction buffer was aliquoted to individual tubes, then supplemented with a total of 10.0µM dATP and/or adenosine triphosphate analog (as described in the figure legend). The reactions were initiated by the addition of 1.0µg RT and the reaction was incubated at 37° C. for the various indicated time intervals. Reactions were stopped by the addition of EDTA and the reactions precipitated by the addition of isopropyl alcohol. The products were resuspended in formamide gel loading buffer II (Ambion), heated at 70° for 5 min to denature the products, and fractionated on a 15% polyacrylamide sequencing gel.

MT-4 cells = settings: previously reported; cited from earlier work
[3] = test system: NRTI-resistant HIV-1, including the M184V variant; settings: infected MT-4 cells, Ohrui 2006, Ohuri 2007, Kawamoto 2008, cited from earlier work
HIV-1 M184V variant = format: cell-based; settings: HOS cells, single-cycle infectivity assay

C[C@]1(CO)O[C@@H](n2cnc3c(N)ncnc32)C[C@@H]1O [C4′Me-2-dA, C4′-methyl-2-deoxyadenosine]
inhibition of NRTI resistance mutant SSGR+215 (HIV-1 SSGR+215): inhibitory | inhibition of DNA synthesis compared with AZT [1]: as well as or better than AZT | late stage viral DNA synthesis (gag and 2nd Strand Transfer) [1]: significantly diminished | effectiveness in TZM-bl cells compared with HOS cells (HIV-1): equally as effective | cytotoxicity in MT4 cell killing assays (MT4 cells): cytotoxic | inhibition of NRTI resistance mutant AZT-R (HIV-1 AZT-R): inhibitory | EC50 ([2]; read-out: EC50, relative infectivity of HIV-1 vectors): 48 nM | inhibition of NRTI resistance mutant Q151M complex (HIV-1 Q151M complex): inhibitory

CCC1(CO)OC(n2cnc3c(N)ncnc32)CC1O (stereo not drawn) [C4′Et-2-dA, 5-(6-Amino-purin-9-yl)-2-ethyl-2-hydroxymethyl-tetrahydro-furan-3-ol]
inhibition of NRTI resistance mutant SSGR+215 (HIV-1 SSGR+215): inhibitory | inhibition of DNA synthesis compared with AZT [1]: as well as or better than AZT | late stage viral DNA synthesis (gag and 2nd Strand Transfer) [1]: significantly diminished | effectiveness in TZM-bl cells compared with HOS cells (HIV-1; TZM-bl cells): equally as effective | selectivity index (CC50 to EC50 ratio) (HOS cells): greater than 140 | inhibition of NRTI resistance mutant AZT-R (HIV-1 AZT-R): inhibitory | increase in the EC50 value, AZT-R variant over wild-type (HIV-1 AZT-R; HOS cells): 3.9 fold | inhibition of NRTI resistance mutant Q151M complex (HIV-1 Q151M complex): inhibitory

C[C@]1(COP(=O)(O)OP(=O)(O)OP(=O)(O)O)O[C@@H](n2cnc3c(N)ncnc32)C[C@@H]1O [C4′-methyl-2-dexoyadenosinetriphosphate]
chain termination (HIV-1 RT; longer time points, extended DNA products observed): does not act as a chain terminator | competition with normal nucleosides (HIV-1 RT; mixtures of ATP and the triphosphate): able to compete with normal nucleosides during DNA synthesis | effect of triphosphate incorporation on DNA synthesis (HIV-1 RT; short time points, DNA or RNA template): pausing during DNA synthesis at the point of incorporation

C#C[C@]1(CO)O[C@@H](n2cnc3c(N)nc(F)nc32)C[C@@H]1O [C4′-ethynl-deoxy-2-fluoro-adenosine, C4′-ethynl-deoxy-2-fluoroadenosine]
cytotoxicity in MT-4 cells (MT-4 cells): decreased cytotoxicity | effectiveness against HIV-1 in MT-4 cells [3]: effective compound against NRTI-resistant HIV-1, including the M184V variant | effectiveness against HIV-1 in MT-4 cells ([3]; listed as C4′-ethynl-deoxy-2-fluoroadenosine): effective against the wild-type and the M184V reverse transcriptase variant | efficacy against WT versus C4′-methyl- and -ethyl-2-deoxyadenosine [2]: slightly improved efficacies against WT | increase in EC50 values, M184V variant over wild-type (HIV-1 M184V variant): 2 fold
